Results reported in patent US20230024108A1, “ADENOSINE A2A RECEPTOR ANTAGONISTS” (Teon Therapeutics, Inc., priority 2019, published 2023).
pEC50, pIC50: −log10 of the molar value.

How the values were obtained:
human A2A AdoR = target: T1, human A2A AdoR (Homo sapiens, UniProt P29274); assay: Adenosine receptor binding assay, A2A ([3H]-CGS-21680); details: membranes of HEK-293 cells expressing human A2A AdoR; read-out: hA2A IC50
T1 construct: purchased PerkinElmer RBHA2AM400UA
Outline: (§1)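 Filtration binding on membranes: A2A in HEK-293 with 6 nM [3H]-CGS-21680, Tris pH 7.4, 2 h; A2B in HEK-293 with 8 nM [3H]-DPCPX, HEPES pH 7.0, 1 h; A1 in CHO-K1 with 1 nM [3H]-DPCPX, HEPES pH 7.4, 1 h; room temperature. 8-point dilutions; IC50 converted to Ki (Cheng–Prusoff).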

human A2B AdoR = target: T2, human A2B AdoR (Homo sapiens, UniProt P29275); assay: Adenosine receptor binding assay, A2B ([3H]-DPCPX); details: ratio A2B vs A2A binding
T2 construct: purchased PerkinElmer ES-013-M400UA
T2 sequence (P29275 1-332): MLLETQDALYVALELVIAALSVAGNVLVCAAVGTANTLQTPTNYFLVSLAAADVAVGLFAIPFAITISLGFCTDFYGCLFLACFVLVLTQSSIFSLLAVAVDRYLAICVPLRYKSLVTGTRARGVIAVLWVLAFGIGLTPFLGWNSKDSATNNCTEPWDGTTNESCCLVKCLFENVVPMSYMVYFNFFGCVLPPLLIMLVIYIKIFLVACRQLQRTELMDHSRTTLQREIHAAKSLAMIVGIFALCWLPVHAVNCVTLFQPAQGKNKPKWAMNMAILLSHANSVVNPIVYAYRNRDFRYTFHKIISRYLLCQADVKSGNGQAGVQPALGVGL
Description: Membranes prepared from CHO-K1 cells stably expressing Human AiAdoR (ES-010-M400UA), HEK-293 cells stably expressing human A2A AdoR (RBHA2AM400UA), HEK-293 cells stably expressing human A2B AdoR (ES-013-M400UA) and CHO-K1 cells stably expressing Human A3 AdoR (ES-012-M400UA) were purchased from PerkinElmer (Waltham, Mass., USA) and stored at −80° C. until use. Binding assays are performed using the radioligands. The final concentrations are as follows: [3H]-DPCPX (PerkinElmer, NET974001MC) at 1 nM for A1AdoR; [^3H]-CGS-21680 (PerkinElmer, NET1021250UC) at 6 nM for A2AAdoR, [3H]-DPCPX (PerkinElmer, NET974001MC) at 8 nM for A2BAdoR; [^3H]-HEMADO (ARC, Cat: ART1456) at 1 nM for A3AdoR. Testing compounds are diluted with DMSO to make 8-point 4-fold serial dilution. Nonspecific binding (Low control: LC) and total binding (High control: HC) are determined in the presence or absence of saturated cold ligand. Specific binding is calculated by subtracting nonspecific binding from total binding. All assays are performed in a final volume of 200 μl containing 1 μl of the test compound in DMSO, 100 μl of membrane preparation, and 99 μl of the radioligand in assay buffer (A1AdoR: 25 mM HEPES pH 7.4, 5 mM MgCl2, 1 mM CaCl2), 100 mM NaCl; A2AAdoR: 50 mM Tris HCl pH 7.4, 10 mM MgCl2, 1 mM EDTA; A2BAdoR: 50 mM HEPES pH 7.0, 5 mM MgCl2, 1 mM EDTA; A3AdoR: 25 HEPES pH 7.4, 10 mM MgCl2, 1 mM CaCl2), 0.5% BSA). The incubation is performed at room temperature with shaking at 300 rpm for 1 hour for A1AdoR, A2BAdoR and A3AdoR and 2 hours for A2AAdoR. After the incubation, the assay mixture is filtered through 96 GF/C filter plates (Perkin Elmer #6005174) using Perkin Elmer Filtermate Harvester, and then washed four times with ice-cold washing buffer (A1AdoR: 25 mM HEPES pH 7.4, 5 mM MgCl2, 1 mM CaCl2), 100 mM NaCl; A2AAdoR: 50 mM Tris HCl pH 7.4, 154 mM NaCl; A2BAdoR: 50 mM HEPES pH 6.5, 5 mM MgCl2, 1 mM EDTA, 0.2% BSA; A3AdoR: 50 mM Tris HCl pH 7.4). The filters are dried for 1 hour at 50° C. and [^3H] trapped on filter counted for radioactivity in Perkin Elmer Microscint 20 cocktail (#6013329) using Perkin Elmer MicroBeta2 Reader. The results are expressed as a percent inhibition of the control radioligand specific binding calculated using the following equation: % Inhibition=(1−(Assay well-Average_LC)/(Average_HC−Average_LC))×100%. Data are analyzed and IC50 is calculated using GraphPad Prism 5 and the model “log(inhibitor) vs. response—Variable slope”. The binding affinity of the compounds is determined by using the Cheng and Prusoff equation Ki=IC50/(1+[radioligand]/Kd).

A1AdoR = target: T3, A1AdoR (Homo sapiens, UniProt P30542); assay: Adenosine receptor binding assay, A1 ([3H]-DPCPX); details: ratio A1 vs A2A binding
T3 construct: purchased PerkinElmer ES-010-M400UA
T3 sequence (P30542 1-326): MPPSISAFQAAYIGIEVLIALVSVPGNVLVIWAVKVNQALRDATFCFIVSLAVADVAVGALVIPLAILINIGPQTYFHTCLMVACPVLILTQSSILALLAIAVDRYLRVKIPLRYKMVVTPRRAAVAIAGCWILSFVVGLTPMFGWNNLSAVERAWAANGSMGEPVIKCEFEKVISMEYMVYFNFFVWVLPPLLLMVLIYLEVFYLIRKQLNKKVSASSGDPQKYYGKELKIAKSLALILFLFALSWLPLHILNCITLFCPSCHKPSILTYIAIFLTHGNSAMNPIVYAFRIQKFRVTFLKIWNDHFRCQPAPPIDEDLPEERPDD
Outline: as §1

phospho-CREB (pCREB) = assay: Human whole blood phospho-CREB (pCREB) assay / modulation of pCREB in human immune cells; type: cell-based; details: agonist (NECA or CGS-21680)-stimulated human blood cells
Description: Fresh human blood samples are derived from healthy volunteers and processed in heparin tubes. 67.5 ul of whole blood is aliquoted to each well in a 96-well plate and incubated at 37° C. for 30 min. Testing compounds are diluted with DMSO to make 8-point 3-fold serial dilution and 3.5 ul (20×) is added to each well. Cells are incubated with the compounds at 37° C. for 30 min. NECA (5 uM) is then added to each well and cells are incubated for 30 min at 37° C. Following the stimulation, cells are transferred to a 96-well deep well plates and fixed with 1 ml/well of lyse/fix buffer (1×) (BD Biosciences #558049) with vigorous shake at 37° C. for 10 min. Cells are centrifuged at 600 g for 6 min and washed twice with PBS, followed by addition of 800 ul/well Perm buffer III (BD Biosciences #558050). Cells are then pelleted at 600 g for 6 min, washed with FACS buffer (PBS+0.2% BSA+1 mM EDTA) and stained for 40 min at room temperature in the dark with an antibody cocktail containing PE mouse anti-human CD3 (BD Biosciences #555333, 1 ul/well), FITC mouse anti-human CD4 (BD Biosciences #5555346, 1 ul/well), PerCP-Cy™5.5 mouse anti-human CD8 (BD Biosciences #565310, 1 ul/well) and phospho-CREB (Ser133) (87G3) Rabbit mAb (Alexa Fluor® 647 Conjugate, CST #14001, 0.5 ul/well). Cells are then washed twice with FACS buffer and acquired on a flow cytometer (Sony Cell Sorter SH800). Data were analyzed using FlowJo version 9. The level of CREB phosphorylation from unstimulated cells (Low control: LC) and NECA-stimulated cells (High control: HC) are determined as mean fluorescent intensity (MFI) in stimulated condition/mean fluorescent intensity in unstimulated condition. % Inhibition is calculated as (MFI of HC-MFI of assay well)/(MFI of HC-MFI of LC)×100%. Data are analyzed and IC50s calculated using GraphPad Prism 5 and the model “log(inhibitor) vs. response—Variable slope”.
The A2A receptor is known to mediate CREB phosphorylation.
Venous blood from healthy volunteers, all of whom signed an informed consent approved by the Ethics Committee (FOR—UIC-BV-050-01-01 ICF HBS HD Version 5.0), was obtained via ImmuneHealth (Centre Hospitalier Universitaire Tivoli, La Louviere,
15 Belgium). Peripheral blood cells were treated with A2AR agonists CGS-21680 or NECA (Sigma-Aldrich, Diegem, Belgium), and a serial dilution of compounds disclosed herein (all used stock solutions at 10 mM in DMSO). All dilutions were prepared in RPMI1640 medium (with UltraGlutamine; Lonza, Venders, Belgium), and cells were incubated with compounds in a 37° C. humidified tissue culture incubator with 5% CO2.
After stimulation, cells were fixed and permeabilized, followed by intracellular staining using mouse anti-human pCREB antibodies (Clone J151-21; BD Biosciences) at room temperature. Data were acquired using an LSRFortessa flow cytometer (BD Biosciences) and analyzed using FlowJo software (FlowJo, LLC, Ashland, Oregon).

T1 sequence (P29274 whole entry): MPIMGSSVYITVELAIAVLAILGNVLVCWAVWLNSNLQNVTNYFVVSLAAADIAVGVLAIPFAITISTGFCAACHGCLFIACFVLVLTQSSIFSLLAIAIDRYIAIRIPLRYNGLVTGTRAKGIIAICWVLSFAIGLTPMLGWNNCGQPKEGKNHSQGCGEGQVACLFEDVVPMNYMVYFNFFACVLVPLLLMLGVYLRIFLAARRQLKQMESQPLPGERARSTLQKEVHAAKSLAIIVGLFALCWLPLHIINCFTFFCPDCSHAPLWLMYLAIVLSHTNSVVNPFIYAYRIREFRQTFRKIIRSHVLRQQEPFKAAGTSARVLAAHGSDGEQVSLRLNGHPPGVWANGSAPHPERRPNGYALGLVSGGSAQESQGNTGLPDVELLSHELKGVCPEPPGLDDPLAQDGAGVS

SMILES | pIC50 (human A2A AdoR) | A2B/A2A Selectivity (human A2B AdoR) | pEC50 (phospho-CREB (pCREB)) | A1/A2A Selectivity (A1AdoR)
Cc1noc2cc(F)c(N3CCN(CCn4c(C#N)c(Cl)c5c4nc(N)n4nc(-c6ccccn6)nc54)CC3)cc12 | ≥ 7.70 | a (greater than 1000) | 7.00 to 7.70 | a (greater than 1000)
Cc1c(C(=O)O)n(CCN2CCN(c3cc(-c4ncco4)ccc3F)CC2)c2nc(N)n3nc(-c4ccccn4)nc3c12 | ≥ 7.70 | a (greater than 1000) | ≥ 7.70 | a (greater than 1000)
Nc1nc2c(cc(C(=O)O)n2CCN2CCN(c3cc(-c4ncco4)ccc3F)CC2)c2nc(-c3ccccn3)nn12 [5-amino-7-(2-(4-(2-fluoro-5-(oxazol-2-yl)phenyl)piperazin-1-yl)ethyl)-2-(pyridin-2-yl)-7H-pyrrolo[3,2-e][1,2,4]triazolo[1,5-c]pyrimidine-8-carboxylic acid] | ≥ 7.70 | a (greater than 1000) | < 7.00 | b (greater than 100 but less than or equal to 1000)
NC(=O)c1cc2c(nc(N)n3nc(-c4ccccn4)nc23)n1CCN1CCN(c2ccc(OCC(=O)O)cc2)CC1 | ≥ 7.70 | a (greater than 1000) | 7.00 to 7.70 | b (greater than 100 but less than or equal to 1000)
Cc1c(C(=O)NC2CC2)n(CCN2CCN(c3cc(-c4ncco4)ccc3F)CC2)c2nc(N)n3nc(-c4ccccn4)nc3c12 | ≥ 7.70 | a (greater than 1000) | < 7.00 | a (greater than 1000)
COCCOc1ccc(N2CCN(CCn3c(C(N)=O)cc4c3nc(N)n3nc(-c5ccccn5)nc43)CC2)cc1 | ≥ 7.70 | a (greater than 1000) | < 7.00 | c (greater than 0 but less than or equal to 100)
NC(=O)c1cc2c(nc(N)n3nc(-c4ccccn4)nc23)n1CCN1CCN(c2cc(-c3ncco3)ccc2F)CC1 | ≥ 7.70 | a (greater than 1000) | 7.00 to 7.70 | b (greater than 100 but less than or equal to 1000)
Cc1noc2cc(F)c(N3CCN(CCn4nc(Cl)c5c4nc(N)n4nc(-c6ccccn6)nc54)CC3)cc12 | ≥ 7.70 | a (greater than 1000) | ≥ 7.70 | b (greater than 100 but less than or equal to 1000)
COCCOc1ccc(N2CCN(CCn3c(C#N)cc4c3nc(N)n3nc(-c5ccccn5)nc43)CC2)cc1 | ≥ 7.70 | a (greater than 1000) | < 7.00 | b (greater than 100 but less than or equal to 1000)

Further lines, with some results ahead:

pIC50 (human A2A AdoR) | A2B/A2A Selectivity (human A2B AdoR) | pEC50 (phospho-CREB (pCREB)) | SMILES | A1/A2A Selectivity (A1AdoR)
≥ 7.70 | a (greater than 1000) | 7.00 to 7.70 | Nc1nc2c(c(Cl)nn2CCN2CCN(c3cc(-c4ncco4)ccc3F)CC2)c2nc(-c3ccccn3)nn12 | c (greater than 0 but less than or equal to 100)
≥ 7.70 | a (greater than 1000) | < 7.00 | CC#Cc1nc2c3cc(C#N)n(CCN4CCN(c5cc(-c6ncco6)ccc5F)CC4)c3nc(N)n2n1 | a (greater than 1000)
≥ 7.70 | a (greater than 1000) | < 7.00 | N#Cc1cc2c(nc(N)n3nc(-c4ccccn4)nc23)n1CCN1CCN(c2cc(-c3ncco3)ccc2F)CC1 | a (greater than 1000)
≥ 7.70 | a (greater than 1000) | < 7.00 | Cc1noc2cc(F)c(N3CCN(CCn4c(C#N)cc5c4nc(N)n4nc(-c6ccccn6)nc54)CC3)cc12 | c (greater than 0 but less than or equal to 100)
≥ 7.70 | a (greater than 1000) | ≥ 7.70 | Cc1noc2cc(F)c(N3CCN(CCn4c(C(N)=O)c(Cl)c5c4nc(N)n4nc(-c6ccccn6)nc54)CC3)cc12 [5-amino-9-chloro-7-[2-[4-(6-fluoro-3-methyl-1,2-benzoxazol-5-yl)piperazin-1-yl]ethyl]-2-(2-pyridyl)-[1,2,4]triazolo[1,5-c]pyrrolo[3,2-e]pyrimidine-8-carboxamide] | a (greater than 1000)
